Like-named read-outs stand apart in the source and are kept apart here.
Legend:
Assay type in all cases: binding
[1] = biological target: T1, HeLa cell extract proteins (Homo sapiens, UniProt P32119)
T1 construct: endogenous in cells; host or cells: HeLa cell extract
T1 sequence (P32119 1-198): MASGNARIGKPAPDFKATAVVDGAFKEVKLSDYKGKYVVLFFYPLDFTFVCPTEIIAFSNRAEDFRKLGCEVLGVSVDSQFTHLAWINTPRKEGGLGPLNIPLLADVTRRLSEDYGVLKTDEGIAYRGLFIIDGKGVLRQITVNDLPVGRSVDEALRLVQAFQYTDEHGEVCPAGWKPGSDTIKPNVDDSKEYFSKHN

[2] = biological target: T2, HeLa cell extract proteins (Homo sapiens, UniProt P56589)
T2 construct: endogenous in cells; host or cells: HeLa cell extract
T2 sequence (P56589 1-373): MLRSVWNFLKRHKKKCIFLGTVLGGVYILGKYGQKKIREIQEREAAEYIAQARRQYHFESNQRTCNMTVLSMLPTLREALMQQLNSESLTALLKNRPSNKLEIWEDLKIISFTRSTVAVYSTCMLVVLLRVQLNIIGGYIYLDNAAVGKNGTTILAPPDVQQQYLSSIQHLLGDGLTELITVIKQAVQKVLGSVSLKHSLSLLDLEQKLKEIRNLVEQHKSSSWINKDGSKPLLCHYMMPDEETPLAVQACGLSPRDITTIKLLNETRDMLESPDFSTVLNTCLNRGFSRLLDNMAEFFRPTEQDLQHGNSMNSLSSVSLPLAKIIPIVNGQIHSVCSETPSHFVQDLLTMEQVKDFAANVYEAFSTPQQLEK

[3] = biological target: T3, HeLa cell extract proteins (Homo sapiens, UniProt Q01628)
T3 construct: endogenous in cells; host or cells: HeLa cell extract

[4] = biological target: T4, HeLa cell extract proteins (Homo sapiens, UniProt Q53R41)
T4 construct: endogenous in cells; host or cells: HeLa cell extract
T4 sequence (Q53R41 1-847): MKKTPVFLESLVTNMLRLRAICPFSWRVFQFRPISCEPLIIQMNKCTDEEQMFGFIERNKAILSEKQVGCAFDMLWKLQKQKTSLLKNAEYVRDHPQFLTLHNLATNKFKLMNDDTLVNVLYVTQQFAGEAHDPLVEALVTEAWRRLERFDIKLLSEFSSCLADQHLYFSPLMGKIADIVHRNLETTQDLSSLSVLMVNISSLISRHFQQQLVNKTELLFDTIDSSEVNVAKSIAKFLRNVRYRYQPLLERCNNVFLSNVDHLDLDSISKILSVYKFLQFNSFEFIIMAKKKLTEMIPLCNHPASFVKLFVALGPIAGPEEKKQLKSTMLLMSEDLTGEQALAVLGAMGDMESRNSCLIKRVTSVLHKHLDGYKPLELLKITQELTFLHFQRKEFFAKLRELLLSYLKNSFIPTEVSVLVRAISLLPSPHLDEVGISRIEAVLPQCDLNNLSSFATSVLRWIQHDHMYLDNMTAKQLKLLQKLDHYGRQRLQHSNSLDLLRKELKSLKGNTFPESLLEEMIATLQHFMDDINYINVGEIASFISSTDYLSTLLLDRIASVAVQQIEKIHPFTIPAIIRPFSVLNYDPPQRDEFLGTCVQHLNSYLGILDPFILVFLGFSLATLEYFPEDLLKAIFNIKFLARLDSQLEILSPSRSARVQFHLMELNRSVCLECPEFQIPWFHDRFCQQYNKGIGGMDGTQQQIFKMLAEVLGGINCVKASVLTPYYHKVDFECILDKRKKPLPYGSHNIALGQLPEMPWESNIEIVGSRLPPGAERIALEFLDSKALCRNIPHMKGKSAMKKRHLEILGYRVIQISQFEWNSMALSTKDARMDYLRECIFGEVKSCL

[5] = biological target: T5, HeLa cell extract proteins (Homo sapiens, UniProt O14980)
T5 construct: endogenous in cells; host or cells: HeLa cell extract

[6] = biological target: T6, HeLa cell extract proteins (Homo sapiens, UniProt P50395)
T6 construct: endogenous in cells; host or cells: HeLa cell extract
T6 sequence (P50395 1-445): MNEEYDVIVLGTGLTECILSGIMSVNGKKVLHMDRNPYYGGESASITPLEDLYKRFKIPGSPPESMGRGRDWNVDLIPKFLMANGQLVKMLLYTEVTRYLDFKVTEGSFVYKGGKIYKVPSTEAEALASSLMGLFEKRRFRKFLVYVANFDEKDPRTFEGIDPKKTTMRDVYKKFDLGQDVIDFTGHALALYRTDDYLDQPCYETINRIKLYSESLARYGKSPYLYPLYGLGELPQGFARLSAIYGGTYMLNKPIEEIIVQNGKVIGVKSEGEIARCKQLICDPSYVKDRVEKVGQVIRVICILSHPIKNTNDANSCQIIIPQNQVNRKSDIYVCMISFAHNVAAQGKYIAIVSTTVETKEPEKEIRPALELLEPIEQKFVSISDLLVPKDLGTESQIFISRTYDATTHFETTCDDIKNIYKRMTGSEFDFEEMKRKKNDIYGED

[7] = biological target: T7, HeLa cell extract proteins (Homo sapiens, UniProt Q9UJP4)
T7 construct: endogenous in cells; host or cells: HeLa cell extract
T7 sequence (Q9UJP4 1-597): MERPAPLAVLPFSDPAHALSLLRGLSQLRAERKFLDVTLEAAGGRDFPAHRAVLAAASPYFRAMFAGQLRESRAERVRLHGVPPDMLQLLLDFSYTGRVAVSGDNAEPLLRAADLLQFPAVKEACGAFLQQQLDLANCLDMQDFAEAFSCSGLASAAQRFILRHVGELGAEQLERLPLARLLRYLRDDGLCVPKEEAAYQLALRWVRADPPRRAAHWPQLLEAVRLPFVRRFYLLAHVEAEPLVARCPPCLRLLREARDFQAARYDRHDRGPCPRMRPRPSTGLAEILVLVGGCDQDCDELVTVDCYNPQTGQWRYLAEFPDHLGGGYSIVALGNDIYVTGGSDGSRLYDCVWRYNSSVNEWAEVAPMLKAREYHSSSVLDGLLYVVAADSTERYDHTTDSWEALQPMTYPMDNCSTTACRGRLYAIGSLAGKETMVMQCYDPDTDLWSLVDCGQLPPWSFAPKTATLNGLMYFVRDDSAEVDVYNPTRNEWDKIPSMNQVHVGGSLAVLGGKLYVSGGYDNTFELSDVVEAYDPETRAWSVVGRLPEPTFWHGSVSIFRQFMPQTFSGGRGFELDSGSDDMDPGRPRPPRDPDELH

[8] = biological target: T8, HeLa cell extract proteins (Homo sapiens, UniProt O75306)
T8 construct: endogenous in cells; host or cells: HeLa cell extract
T8 sequence (O75306 34-463): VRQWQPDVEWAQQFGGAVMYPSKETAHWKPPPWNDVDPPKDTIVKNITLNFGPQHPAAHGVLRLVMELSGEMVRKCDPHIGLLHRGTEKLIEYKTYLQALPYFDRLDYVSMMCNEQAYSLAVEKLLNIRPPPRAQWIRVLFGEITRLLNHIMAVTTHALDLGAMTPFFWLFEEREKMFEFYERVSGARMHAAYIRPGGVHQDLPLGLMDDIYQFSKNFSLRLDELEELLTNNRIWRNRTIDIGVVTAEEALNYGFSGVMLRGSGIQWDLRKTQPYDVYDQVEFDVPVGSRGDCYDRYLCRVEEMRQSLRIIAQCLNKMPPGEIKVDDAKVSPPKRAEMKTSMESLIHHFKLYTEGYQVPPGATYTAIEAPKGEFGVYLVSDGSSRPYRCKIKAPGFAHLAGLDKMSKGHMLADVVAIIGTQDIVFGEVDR

T5 sequence (O14980 whole entry): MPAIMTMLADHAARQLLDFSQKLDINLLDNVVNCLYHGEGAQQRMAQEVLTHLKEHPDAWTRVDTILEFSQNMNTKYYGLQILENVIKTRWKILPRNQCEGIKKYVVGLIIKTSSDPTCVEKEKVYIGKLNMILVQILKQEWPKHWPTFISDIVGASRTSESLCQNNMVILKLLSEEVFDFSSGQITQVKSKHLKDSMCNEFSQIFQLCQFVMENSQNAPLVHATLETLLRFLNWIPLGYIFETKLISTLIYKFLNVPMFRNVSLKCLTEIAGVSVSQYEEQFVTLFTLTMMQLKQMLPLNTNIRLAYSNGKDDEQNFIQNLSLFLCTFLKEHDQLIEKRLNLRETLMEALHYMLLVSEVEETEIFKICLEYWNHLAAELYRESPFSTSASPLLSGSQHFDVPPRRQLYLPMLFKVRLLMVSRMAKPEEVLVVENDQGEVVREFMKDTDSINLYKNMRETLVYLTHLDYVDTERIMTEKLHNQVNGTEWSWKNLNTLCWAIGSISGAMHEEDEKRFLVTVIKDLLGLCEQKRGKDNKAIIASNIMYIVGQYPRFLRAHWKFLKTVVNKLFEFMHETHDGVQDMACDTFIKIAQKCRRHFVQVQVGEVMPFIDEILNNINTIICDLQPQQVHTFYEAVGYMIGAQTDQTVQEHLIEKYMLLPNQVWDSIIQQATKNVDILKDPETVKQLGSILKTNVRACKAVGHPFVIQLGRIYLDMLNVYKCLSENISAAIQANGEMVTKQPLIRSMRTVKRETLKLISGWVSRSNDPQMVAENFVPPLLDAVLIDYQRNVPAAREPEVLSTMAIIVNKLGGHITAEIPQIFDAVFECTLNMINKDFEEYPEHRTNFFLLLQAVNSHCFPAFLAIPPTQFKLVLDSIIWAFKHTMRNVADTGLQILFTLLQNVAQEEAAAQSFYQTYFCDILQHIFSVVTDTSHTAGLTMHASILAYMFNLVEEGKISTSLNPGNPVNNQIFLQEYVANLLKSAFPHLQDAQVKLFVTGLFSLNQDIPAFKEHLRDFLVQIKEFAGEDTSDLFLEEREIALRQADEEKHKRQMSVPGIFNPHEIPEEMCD
T3 sequence (Q01628 whole entry): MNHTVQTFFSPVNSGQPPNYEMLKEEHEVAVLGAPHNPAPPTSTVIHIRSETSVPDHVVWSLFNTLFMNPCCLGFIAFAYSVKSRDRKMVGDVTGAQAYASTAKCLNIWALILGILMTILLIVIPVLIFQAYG

Compound	fold changes relative to vehicle control ([1]; protein PRDX2, HeLa)	fold changes relative to vehicle control ([2]; HeLa, protein PEX3)	fold changes relative to vehicle control ([3]; captured protein IFITM3, HeLa)	fold changes relative to vehicle control ([4]; captured protein FASTKD1, HeLa)	fold changes relative to vehicle control ([5]; HeLa, protein XPO1)	fold changes relative to vehicle control ([6]; protein GDI2, HeLa)	fold changes relative to vehicle control ([7]; HeLa, protein KLHL21)	fold changes relative to vehicle control ([8]; HeLa, protein NDUFS2)	fold changes relative to vehicle control ([1]; HeLa, captured protein PRDX2)	fold changes relative to vehicle control ([2]; HeLa, captured protein PEX3)	fold changes relative to vehicle control ([3]; HeLa, protein IFITM3)	fold changes relative to vehicle control ([4]; HeLa, protein FASTKD1)	fold changes relative to vehicle control ([5]; HeLa, captured protein XPO1)	fold changes relative to vehicle control ([8]; protein NDUFS2, HeLa)	also measured
CCCCCCOc1cccc(Cc2cnc(N)nc2N)c1 [compound 2]	2.19	0.93	0.65	1.08	1.09	1.81	1.01	1.12	–	–	–	–	–	–	–
NCCOCCOCC(=O)Nc1nc2ncc(CNc3ccc(C(=O)NC(CCC(=O)O)C(=O)O)cc3)nc2c(=O)[nH]1 (centres unmarked) [compound 6]	–	–	–	–	–	1.03	1	–	1.18	1	1.14	0.87	0.93	1.12	–
CCCCCCOc1ccc(Cc2cnc(N)nc2N)cc1 [compound 1]	1.36	0.94	1.07	0.96	0.99	1.06	1.06	1.15	–	–	–	–	–	–	–
Nc1nc2c(c(=O)[nH]1)N(C=O)C(CNc1ccc(C(=O)N[C@@H](CCC(=O)O)C(=O)O)cc1)CN2 (some centres unmarked) [LEU, leucovorin]	–	–	–	–	–	0.93	1.02	–	1.05	1.02	1.21	0.85	0.92	0.86	–
NCCCNc1ccc(C(=O)NC(CCC(=O)O)C(=O)O)cc1 (centres unmarked) [compound 7]	–	–	–	–	–	1.02	0.97	–	0.89	0.97	1.3	0.84	0.94	1.13	–
Nc1nc2[nH]cc(CCc3ccc(C(=O)N[C@@H](CCC(=O)O)C(=O)O)cc3)c2c(=O)[nH]1 [PTX, pemetrexed]	–	–	–	–	–	–	–	–	–	–	–	–	–	–	fold changes relative to vehicle control [1]: 1.17; fold changes relative to vehicle control [2]: 0.95; fold changes relative to vehicle control [3]: 1.32; fold changes relative to vehicle control [4]: 0.83; fold changes relative to vehicle control [5]: 0.86; fold changes relative to vehicle control [6]: 0.9; fold changes relative to vehicle control [7]: 0.95; fold changes relative to vehicle control [8]: 0.92
Nc1nc2cccc(-c3ccccc3)c2n1Cc1ccc(Cl)c(Cl)c1 [compound 3]	0.89	0.92	0.9	0.98	1.03	0.72	1.04	1.3	–	–	–	–	–	–	–

From PMC6199744, “Development of Chemical Proteomics for the Folateome and Analysis of the Kinetoplastid Folateome” (ACS Infectious Diseases, 2018)
